Each compound was assayed against Sodium-dependent dopamine transporter (Rattus norvegicus, UniProt P23977) (assay: Binding affinity against dopamine transporter in rat caudate putamen tissue using [3H]WIN-35428 radioligand.).
Type: tissue-based

Chain of Sodium-dependent dopamine transporter (P23977 whole entry): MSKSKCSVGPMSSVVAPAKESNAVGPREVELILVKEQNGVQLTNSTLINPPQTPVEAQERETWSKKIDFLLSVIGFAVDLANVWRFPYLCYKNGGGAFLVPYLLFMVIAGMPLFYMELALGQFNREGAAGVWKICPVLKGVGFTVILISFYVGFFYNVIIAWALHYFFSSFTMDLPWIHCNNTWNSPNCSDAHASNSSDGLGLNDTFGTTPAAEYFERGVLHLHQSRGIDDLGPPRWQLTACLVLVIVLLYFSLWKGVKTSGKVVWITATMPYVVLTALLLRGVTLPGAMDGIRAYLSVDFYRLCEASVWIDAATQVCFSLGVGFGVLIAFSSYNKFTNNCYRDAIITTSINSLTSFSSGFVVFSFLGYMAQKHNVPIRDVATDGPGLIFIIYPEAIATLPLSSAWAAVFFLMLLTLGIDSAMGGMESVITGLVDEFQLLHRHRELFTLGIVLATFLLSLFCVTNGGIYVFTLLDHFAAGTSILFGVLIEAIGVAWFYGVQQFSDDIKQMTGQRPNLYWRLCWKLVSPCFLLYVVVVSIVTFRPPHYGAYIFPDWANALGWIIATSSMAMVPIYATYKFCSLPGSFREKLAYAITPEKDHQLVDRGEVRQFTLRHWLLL

CN1C2CCCC1C(C(=O)c1ccccc1)C(c1ccccc1)C2 (stereo in doubt; 13) was tested. Which Ki did it give?
Its Ki is 3970 nM.

How did the Ki turn out when CO/C(O)=C1/C(=O)CCC2CCCC1N2C (centres undefined) was run?
The Ki was greater than 100000 nM.

COC(=O)[C@@H]1C2CC[C@H](C[C@@H]1c1ccccc1)N2C was tested. Which Ki did it give?
Its Ki is 310 nM.

With CN1C2CCCC1C(C(=O)c1ccccc1)C(c1ccccc1)C2 (stereo in doubt; 14) as the compound, how does the Ki read?
Its Ki is 1910 nM.
